From patent publication US20200383985A1, “Inhibitors of Protease Activated Receptor-2” (Endosome Therapeutics, Inc., priority 2017, published 2020)
pIC50: −log10 of the molar value. Where two headings read alike, the source gives them in different places.

What was measured:
PAR2 = biological target: T1, PAR2 (Homo sapiens, UniProt P55085); assay: IP1 accumulation assay in HEK293 cells (endogenous PAR2); type: cell-based; conditions: trypsin (30 nM)
T1 construct: HT-29 cells and HEK293 cells, which express endogenous PAR2; endogenous in cells; host or cells: HT-29
T1 sequence (P55085 26-397): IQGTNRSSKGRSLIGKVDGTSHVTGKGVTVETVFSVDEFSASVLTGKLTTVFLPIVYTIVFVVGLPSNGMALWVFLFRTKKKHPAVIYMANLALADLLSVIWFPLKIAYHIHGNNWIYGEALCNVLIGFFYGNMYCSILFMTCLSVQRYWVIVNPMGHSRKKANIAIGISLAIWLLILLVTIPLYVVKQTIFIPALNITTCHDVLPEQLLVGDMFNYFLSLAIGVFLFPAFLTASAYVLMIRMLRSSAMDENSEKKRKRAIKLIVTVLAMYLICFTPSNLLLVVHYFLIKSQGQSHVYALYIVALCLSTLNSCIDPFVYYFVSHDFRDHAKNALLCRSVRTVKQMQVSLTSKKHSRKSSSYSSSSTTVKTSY
Description: Inhibition of PAR2 signaling with known PAR2 inhibitor I-343 (FIG. 14A) was investigated in HT-29 cells and HEK293 cells, which express endogenous PAR2, and in KNRK cells expressing human (h) PAR2. Accumulation of inositol phosphate-1 (IP1) was measured in response to the PAR2-selective agonist 2-Furoyl-LIGRLO-NH2 (2F), an analogue of the trypsin-exposed tethered ligand, or trypsin.
KNRK-hPAR2, KNRK, HEK293, or HT-29 cells were seeded at a density of 50×10^3 cells/well onto clear 96-well plates (PerkinElmer). After 24 h of culture, medium was replaced with IP1 stimulation buffer (10 mM HEPES, 1 mM CaCl2, 0.5 mM MgCl2, 4.2 mM KCl, 146 mM NaCl, 5.5 mM glucose, 50 mM LiCl; 37° C., 5% CO2.). Cells were pre-incubated with the antagonist or vehicle for 30 min prior to the addition of agonist. Cells were then further incubated for 40 min. Stimulation buffer was […]

[1] = test system: βARR1-RLuc8 or Gαq-RLuc8 and Rab5a-Venus; assay: BRET of βARR1 and Gαq translocation to early endosomes in HEK293 cells; type: cell-based; conditions: trypsin 100 nM
Description: To determine whether trypsin induces translocation of βARR and Gαq to endosomes, we measured BRET between βARR1-RLuc8 or Gαq—RLuc8 and Rab5a-Venus in HEK293 cells. […] Immunofluorescence and structured illumination microscopy were used to localize PAR2-HA, Gαq and early endosomal antigen-1 (EEA1) in HEK-293 cells. In unstimulated cells, PAR2 was confined to the plasma membrane, although Gαq was detected in early endosomes (FIG. 18C). Trypsin (10 nM, 30 min) induced translocation of PAR2 to early endosomes containing Gαq. The results support the hypothesis that trypsin causes assembly of a PAR2/βARR/Gαq signalosome in early endosomes.
HEK293 cells were transiently transfected in 10 cm dishes (˜50% confluency) with: PAR2-RLuc8 (1 μg) and either RIT-Venus or Rab5a-Venus (both 4 μg); Flag-PAR2-HA (1 μg) and βARR1-RLuc8 (1 μg) plus Rab5a-Venus (4 μg); or Flag-PAR2-HA (1 μg) and Gαq-RLuc8 (0.5 μg), Gb (1 μg), Gg (1 μg) and Rab5a-Venus (4 μg). […] RLuc8 and YFP intensities were measured at 475±30 nm and 535±30 nm, respectively, using a LUMIstar Omega Microplate Reader (BMG LabTech) before and after challenge with proteases, biopsy supernatants or vehicle. Data are presented as a BRET ratio, calculated as the ratio of YFP to RLuc8 signals, and normalized to the baseline average, followed by vehicle subtraction. Treatment effects were determined by comparison of area under the curve values.

Compound | pIC50 (PAR2; read-out: IC50, trypsin-induced IP1 in HEK293 cells) | IC50 (PAR2; read-out: pIC50, trypsin-induced IP1 in HEK293 cells (converted)) [nM] | βARR1-RLuc8/Rab5a-Venus BRET and Gαq-RLuc8/Rab5a-Venus BRET [1]
Cc1nc(C(=O)N2CCN(C(=O)c3cn4nc(-c5ccc(F)cc5)cc(C(C)(C)C)c4n3)C(C)(C)C2)n[nH]1 [Compound I-343, (8-(tert-butyl)-6-(4-fluorophenyl)imidazo[1,2-b]pyridazin-2-yl)(2,2-dimethyl-4-(5-methyl-1H-1,2,4-triazole-3-carbonyl)piperazin-1-yl)methanone] | 9.40 | 0.437 | 
trypsin |  |  | stimulated an increase
